{
  "source": "patent US20230364084A1",
  "about": "“METHODS FOR PREVENTING OR TREATING CONDITIONS RELATED TO PIKFYVE ACTIVITY” (The Regents of the University of Michigan, priority 2020, published 2023)",
  "key": {"[1]": {"system": "mouse embryonic fibroblast (MEF) cells", "assay": "vacuolization and LC3 lipidation in Atg5 wild-type and knockout MEF cells", "type": "cell-based", "details": "300 nM, 24 hours"}, "[2]": {"target": "T1, PIP5K1A (Homo sapiens, UniProt Q99755)", "T1 construct": "purchased DiscoveRX (KdELECT)", "T1 sequence (Q99755 whole entry)": "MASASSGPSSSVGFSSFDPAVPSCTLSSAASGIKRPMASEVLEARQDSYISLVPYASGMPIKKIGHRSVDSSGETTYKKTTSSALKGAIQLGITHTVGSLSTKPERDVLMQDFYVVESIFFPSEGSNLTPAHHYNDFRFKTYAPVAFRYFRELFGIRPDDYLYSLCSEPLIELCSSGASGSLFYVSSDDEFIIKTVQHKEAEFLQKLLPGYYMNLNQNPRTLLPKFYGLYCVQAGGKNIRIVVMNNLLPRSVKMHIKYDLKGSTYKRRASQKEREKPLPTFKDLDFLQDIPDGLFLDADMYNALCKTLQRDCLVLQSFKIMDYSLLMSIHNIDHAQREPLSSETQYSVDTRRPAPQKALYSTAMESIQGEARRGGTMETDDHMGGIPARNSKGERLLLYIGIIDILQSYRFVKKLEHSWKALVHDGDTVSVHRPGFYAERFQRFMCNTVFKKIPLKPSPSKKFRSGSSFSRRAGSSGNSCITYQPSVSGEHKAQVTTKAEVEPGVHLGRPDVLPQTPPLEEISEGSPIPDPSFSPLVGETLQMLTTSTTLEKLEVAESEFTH", "assay": "kinase dissociation constant analysis (KdELECT)", "type": "binding", "details": "11-point dose-response, duplicate", "method": "(§1) Quantitative binding constants (Kd) of ESK981 to PIKfyve, PIP5K1A, PIP5K1C, and PIK3CA were generated using KdELECT® platform (DiscoveRX). An 11-point dose-response of ESK981 (0.05-3000 nM) was used, and the experiment was performed in duplicate. Detailed information is described on the DiscoveRX website (www.discoverx.com)."}, "[3]": {"target": "T2, PIK3CA (Homo sapiens, UniProt P42336)", "T2 construct": "purchased DiscoveRX (KdELECT)", "T2 sequence (P42336 whole entry)": "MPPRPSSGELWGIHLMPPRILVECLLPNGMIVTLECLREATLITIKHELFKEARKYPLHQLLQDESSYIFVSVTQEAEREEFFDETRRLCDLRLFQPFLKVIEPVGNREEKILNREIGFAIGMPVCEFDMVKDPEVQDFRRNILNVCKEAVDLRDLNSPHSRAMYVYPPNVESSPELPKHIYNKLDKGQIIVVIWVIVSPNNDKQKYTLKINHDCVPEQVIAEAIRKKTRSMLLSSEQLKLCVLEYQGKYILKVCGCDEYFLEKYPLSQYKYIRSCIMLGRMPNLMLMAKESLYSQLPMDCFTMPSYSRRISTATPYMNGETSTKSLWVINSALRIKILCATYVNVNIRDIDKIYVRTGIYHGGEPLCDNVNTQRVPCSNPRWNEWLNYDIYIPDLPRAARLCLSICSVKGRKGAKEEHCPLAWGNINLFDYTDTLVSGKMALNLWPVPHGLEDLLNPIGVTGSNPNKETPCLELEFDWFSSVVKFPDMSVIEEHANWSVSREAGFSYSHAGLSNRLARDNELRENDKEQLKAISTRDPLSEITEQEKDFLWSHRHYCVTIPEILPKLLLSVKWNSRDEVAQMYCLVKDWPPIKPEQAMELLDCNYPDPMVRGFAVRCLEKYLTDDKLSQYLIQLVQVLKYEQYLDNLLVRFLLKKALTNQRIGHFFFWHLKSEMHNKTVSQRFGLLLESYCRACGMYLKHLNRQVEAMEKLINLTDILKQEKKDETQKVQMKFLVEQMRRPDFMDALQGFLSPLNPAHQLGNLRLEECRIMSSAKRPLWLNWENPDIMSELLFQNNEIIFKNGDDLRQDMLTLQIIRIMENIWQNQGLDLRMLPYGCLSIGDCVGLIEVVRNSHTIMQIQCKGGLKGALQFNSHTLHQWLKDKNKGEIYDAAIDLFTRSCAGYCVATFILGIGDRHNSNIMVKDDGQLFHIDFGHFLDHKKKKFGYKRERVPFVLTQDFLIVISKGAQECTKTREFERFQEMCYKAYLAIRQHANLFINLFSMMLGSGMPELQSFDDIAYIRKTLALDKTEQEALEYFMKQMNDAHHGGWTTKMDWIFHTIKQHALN", "assay": "kinase dissociation constant analysis (KdELECT)", "type": "binding", "details": "11-point dose-response, duplicate", "method": "as §1"}, "[4]": {"target": "T3, PIP5K1C (Homo sapiens, UniProt O60331)", "T3 construct": "purchased DiscoveRX (KdELECT)", "assay": "kinase dissociation constant analysis (KdELECT)", "type": "binding", "details": "11-point dose-response, duplicate", "method": "as §1"}, "[5]": {"target": "VEGFR-2 (KDR) (Homo sapiens, UniProt P35968)", "sequence (P35968 20-1356, species assumed)": "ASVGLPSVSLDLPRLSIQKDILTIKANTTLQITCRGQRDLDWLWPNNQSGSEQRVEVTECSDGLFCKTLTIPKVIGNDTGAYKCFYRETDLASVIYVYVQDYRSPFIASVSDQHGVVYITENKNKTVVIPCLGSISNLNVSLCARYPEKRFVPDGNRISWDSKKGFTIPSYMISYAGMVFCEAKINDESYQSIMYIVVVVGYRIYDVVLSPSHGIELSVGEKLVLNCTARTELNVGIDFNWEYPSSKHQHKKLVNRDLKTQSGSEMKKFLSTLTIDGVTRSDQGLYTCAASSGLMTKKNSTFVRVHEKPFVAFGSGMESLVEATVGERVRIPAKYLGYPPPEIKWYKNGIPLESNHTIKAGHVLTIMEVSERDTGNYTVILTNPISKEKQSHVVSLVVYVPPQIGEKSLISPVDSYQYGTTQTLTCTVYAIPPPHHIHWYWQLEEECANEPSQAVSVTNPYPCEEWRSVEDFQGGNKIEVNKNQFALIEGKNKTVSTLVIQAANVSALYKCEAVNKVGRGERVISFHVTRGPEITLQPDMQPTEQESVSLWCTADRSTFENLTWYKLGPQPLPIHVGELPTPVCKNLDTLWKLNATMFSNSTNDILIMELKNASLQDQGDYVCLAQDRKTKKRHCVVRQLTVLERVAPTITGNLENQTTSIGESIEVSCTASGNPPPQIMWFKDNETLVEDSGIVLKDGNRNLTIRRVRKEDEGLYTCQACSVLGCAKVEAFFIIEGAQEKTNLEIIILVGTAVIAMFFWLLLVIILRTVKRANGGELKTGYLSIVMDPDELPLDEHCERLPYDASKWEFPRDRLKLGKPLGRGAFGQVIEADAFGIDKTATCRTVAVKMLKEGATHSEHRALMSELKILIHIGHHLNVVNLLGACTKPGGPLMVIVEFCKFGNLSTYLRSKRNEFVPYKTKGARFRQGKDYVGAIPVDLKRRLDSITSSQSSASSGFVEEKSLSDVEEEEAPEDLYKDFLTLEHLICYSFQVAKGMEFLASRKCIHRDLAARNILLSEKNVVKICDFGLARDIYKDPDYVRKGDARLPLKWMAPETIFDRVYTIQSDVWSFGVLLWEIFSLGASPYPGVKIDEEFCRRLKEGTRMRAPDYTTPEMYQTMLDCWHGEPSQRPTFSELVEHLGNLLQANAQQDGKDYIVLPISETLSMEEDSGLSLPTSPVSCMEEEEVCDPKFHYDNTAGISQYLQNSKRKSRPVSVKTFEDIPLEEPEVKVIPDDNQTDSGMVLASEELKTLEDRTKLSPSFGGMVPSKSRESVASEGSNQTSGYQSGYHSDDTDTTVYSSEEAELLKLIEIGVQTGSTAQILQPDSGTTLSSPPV", "details": "cited from earlier work"}, "[6]": {"target": "T4, PIKfyve (Homo sapiens, UniProt Q9Y2I7)", "T4 sequence (Q9Y2I7 whole entry)": "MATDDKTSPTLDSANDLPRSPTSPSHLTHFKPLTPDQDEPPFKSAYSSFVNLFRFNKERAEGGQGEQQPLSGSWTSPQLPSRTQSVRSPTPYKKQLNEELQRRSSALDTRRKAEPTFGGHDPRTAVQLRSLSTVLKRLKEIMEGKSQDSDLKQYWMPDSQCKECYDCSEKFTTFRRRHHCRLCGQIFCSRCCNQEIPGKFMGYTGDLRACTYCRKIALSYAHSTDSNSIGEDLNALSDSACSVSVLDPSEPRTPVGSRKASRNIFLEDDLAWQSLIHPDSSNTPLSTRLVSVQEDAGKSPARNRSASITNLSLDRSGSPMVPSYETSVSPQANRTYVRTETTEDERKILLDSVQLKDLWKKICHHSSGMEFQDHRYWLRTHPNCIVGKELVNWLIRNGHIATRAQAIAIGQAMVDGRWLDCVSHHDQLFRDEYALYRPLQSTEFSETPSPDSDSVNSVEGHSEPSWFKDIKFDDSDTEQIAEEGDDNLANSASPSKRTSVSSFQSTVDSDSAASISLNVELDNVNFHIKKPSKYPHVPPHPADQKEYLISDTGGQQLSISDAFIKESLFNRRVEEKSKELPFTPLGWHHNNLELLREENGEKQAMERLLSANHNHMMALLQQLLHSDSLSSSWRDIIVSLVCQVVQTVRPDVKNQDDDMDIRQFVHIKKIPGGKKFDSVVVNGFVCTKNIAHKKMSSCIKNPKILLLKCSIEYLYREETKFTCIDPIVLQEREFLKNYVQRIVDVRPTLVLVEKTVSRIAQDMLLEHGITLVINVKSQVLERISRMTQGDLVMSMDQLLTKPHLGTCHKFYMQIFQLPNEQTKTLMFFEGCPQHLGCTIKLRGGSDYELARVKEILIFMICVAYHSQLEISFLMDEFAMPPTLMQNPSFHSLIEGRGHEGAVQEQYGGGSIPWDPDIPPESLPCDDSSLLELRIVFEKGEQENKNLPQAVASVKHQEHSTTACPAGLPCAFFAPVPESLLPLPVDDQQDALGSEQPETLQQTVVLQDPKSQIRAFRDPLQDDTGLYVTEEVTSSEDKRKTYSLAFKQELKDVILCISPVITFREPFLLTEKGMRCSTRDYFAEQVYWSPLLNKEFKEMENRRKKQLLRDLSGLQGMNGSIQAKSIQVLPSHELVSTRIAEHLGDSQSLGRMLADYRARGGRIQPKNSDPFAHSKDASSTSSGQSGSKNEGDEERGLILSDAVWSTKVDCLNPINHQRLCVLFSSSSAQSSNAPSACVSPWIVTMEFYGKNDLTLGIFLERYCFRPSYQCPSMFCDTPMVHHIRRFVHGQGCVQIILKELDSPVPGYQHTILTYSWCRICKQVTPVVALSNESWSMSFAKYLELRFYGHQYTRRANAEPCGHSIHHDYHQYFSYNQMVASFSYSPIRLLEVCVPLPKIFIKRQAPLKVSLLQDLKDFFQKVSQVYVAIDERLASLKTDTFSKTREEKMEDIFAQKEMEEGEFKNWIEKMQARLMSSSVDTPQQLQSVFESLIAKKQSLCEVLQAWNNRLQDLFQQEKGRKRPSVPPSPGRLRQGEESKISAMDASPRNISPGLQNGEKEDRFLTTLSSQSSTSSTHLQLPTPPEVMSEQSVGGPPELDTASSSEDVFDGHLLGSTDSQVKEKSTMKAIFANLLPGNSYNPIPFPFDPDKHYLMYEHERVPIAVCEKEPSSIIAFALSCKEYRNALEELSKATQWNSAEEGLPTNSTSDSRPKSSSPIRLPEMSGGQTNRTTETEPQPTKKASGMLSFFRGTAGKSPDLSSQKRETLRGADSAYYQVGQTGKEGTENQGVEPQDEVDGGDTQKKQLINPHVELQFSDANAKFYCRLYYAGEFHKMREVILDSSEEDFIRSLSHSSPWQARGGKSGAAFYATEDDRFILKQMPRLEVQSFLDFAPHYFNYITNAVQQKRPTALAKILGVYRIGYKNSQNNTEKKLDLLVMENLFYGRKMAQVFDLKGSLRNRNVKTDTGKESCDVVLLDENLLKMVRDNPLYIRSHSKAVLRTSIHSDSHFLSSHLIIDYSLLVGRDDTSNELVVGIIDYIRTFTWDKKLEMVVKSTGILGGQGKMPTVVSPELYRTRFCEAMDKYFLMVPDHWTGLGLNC", "assay": "cellular thermal shift assay", "type": "cell-based", "design": "endogenous in cells; host or cells: VCaP cells", "details": "VCaP cells, 1 μM, 2 hours", "method": "The ability of compounds to interact with, and thereby stabilize the target in intact cells, was analyzed essentially as previously described^60,61. The target engagement of ESK981 to PIKfyve was performed in VCaP cells. Cells were treated with DMSO, ESK981 (1 μM), or apilimod (1 μM) for 2 hours at 37° C. and 5% CO2, and 1×10^6 single cell suspensions were diluted into 50 μl of PBS containing protease inhibitor. Cell suspensions were then incubated in a PCR thermal cycler at various temperatures for 2 cycles of 3 minutes heating followed by 3 minutes cooling at room temperature. Cells were lysed by three cycles of freeze-thawing using liquid nitrogen. 20 μl of the soluble fraction of cell lysates were analyzed by western blot."}, "[7]": {"system": "VCaP 3D spheroids", "assay": "3D spheroid culture", "type": "cell-based, human", "details": "VCaP 3D spheroid culture, compared with cabozantinib", "method": "Nuclear red fluorescent protein-expressing VCaP cells were seeded in ultralow attachment 96-well plates and spun down at 1000 rpm for 10 minutes to pellet cells. Spheroids were formed after 3 days of incubation in a cell culture incubator, and then treatment was started. Red fluorescence intensity was monitored by IncuCyte ZOOM."}, "[8]": {"system": "MDA-PCa-146-12 AR-positive PDX", "assay": "MDA-PCa-146-12 patient-derived xenograft", "type": "in vivo, mouse", "details": "30 mg/kg", "method": "The University of Texas M.D. Anderson Cancer Center (MDACC) patient-derived xenografts (PDX) series has been previously described^62-64. PDXs were derived from men with CRPC undergoing palliative resections using described protocols^65,66. MDA-PCa-146-12 and 146-10 PDX were derived from a patient initially diagnosed with Gleason 3+4=7 prostate adenocarcinoma with an initial PSA of 10.7 ng/ml. […] PDXs were maintained in male SCID mice by surgically implanting 2 mm^3 tumors coated with 100% Matrigel to both flanks of mice. Once tumors reached 100-200 mm^3 in size, mice were randomized and divided into different treatment groups receiving either 30 mg/kg ESK981 or vehicle (ORA-PLUS) by oral gavage 5 days per week."}, "[9]": {"system": "Atg8", "assay": "yeast autophagy detection (Atg8 immunoblot)", "type": "cell-based", "details": "drug permeable yeast strain (prd5Δ), 3 μM, nitrogen deprivation", "method": "The yeast strains used in this study were YAB499 (SEY6210, pho13Δ pho8Δ60, pdr5Δ::Kan). Protein extraction and immunoblot were performed as previously described^59. Antisera to Atg8 and Pgk1 (a generous gift from Dr. Jeremy Thorner, University of California, Berkeley) were used as previously described. Cells were treated with either 3 μM ESK981, 3 μM cabozantinib, or the equivalent amount of DMSO as control for the indicated times."}, "[10]": {"system": "GFP-LC3-RFP-LC3ΔG-expressing Myc-CaP cells", "assay": "autophagic flux detection in Myc-CaP cells", "type": "cell-based, mouse", "details": "24 hours", "method": "For autophagic flux detection, 10,000 cells were plated in 96-well plates and incubated with various compounds in complete medium for 24 hours. GFP and RFP fluorescence intensities were measured on a TECAN M1000 plate reader."}, "[11]": {"system": "LC3-II in prostate cancer cell lines", "assay": "LC3 lipidation western blot", "type": "cell-based, human", "method": "Cell lysates were harvested in Pierce RIPA Lysis buffer (Thermo Scientific) containing protease inhibitor cocktail tablets (Roche) and phosphatase inhibitor cocktail (Millipore). Protein concentration was measured using the DC Protein Assay (Bio-Rad) to ensure an equal amount of protein was loaded onto a gel. The denatured lysates were separated on NuPage 4-12% Bis-Tris Midi Protein gels (Novex) and transferred to 0.45-μm PVDF transfer membrane (Immobilon) using a TransBlot Turbo dry transfer machine (Bio-Rad). The membrane was incubated in blocking buffer (5% non-fat dry milk, Tris-buffered saline with 0.1% Tween 20) for 1 hour at room temperature. The membrane was then incubated with the listed antibodies for 1 hour at room temperature, followed by overnight incubation at 4° C. Chemiluminescent detection using ECL Prime (Amersham) and HyBlot CL autoradiography film (Denville Scientific) was used to visualize the blots. Antibodies used in the immunoblotting assays were against ATG5 (Cat No. 12994S, Cell Signaling Technology), ATG7 (Cat No. 8558S, Cell Signaling Technology), ULK1 (Cat No. 8054S, Cell Signaling Technology), Beclin1 (Cat No. 4122S, Cell Signaling Technology), FIP200 (Cat No. 12436S, Cell Signaling Technology), LC3A/B (Cat No. 127415, Cell Signaling Technology), PIKfyve (Cat No. AF7885, R&D Systems), and GAPDH (Cat No. 3683S, Cell Signaling Technology)."}, "[12]": {"target": "T4, PIKfyve", "assay": "lipid kinase competition assay (scanLIPID panel, 22 lipid kinases)", "type": "binding", "design": "purchased DiscoveRX (KINOMEscan scanLIPID panel; KdELECT)", "details": "1 μM ESK981, only target among 22 phosphoinositide kinases", "method": "Lipid kinase competition assays for 22 lipid kinases, including clinically-relevant mutants, were performed using DiscoveRX KINOEscan® platform scanLIPID® panel. Detailed information is described on the DiscoveRX website (https://www.discoverx.com/technologies-platforms/competitive-binding-technology/kinomescan-technology-platform)."}},
  "data": [
    {"smiles": "CC(C)Cn1c2ccc(Nc3ncccn3)cc2c2c3c(c4c(c21)CCc1nn(C)cc1-4)C(=O)NC3", "note": "[ESK981, 13-isobutyl-4-methyl-10-(pyrimidin-2-ylamino)-1,2,4,7,8,13-hexahydro-6H-indazolo[5,4-a]pyrrolo[3,4-c]carbazol-6-one]", "values": [
      {"measurement": "LC3 lipidation", "setting": "[1]; Atg5 knockout MEFs", "value": "abolished"},
      {"measurement": "vacuolization", "setting": "[1]; autophagy-deficient Atg5−/− MEFs", "value": "largely attenuated"},
      {"measurement": "vacuolization", "setting": "[1]; wild-type MEF cells", "value": "significantly induced"},
      {"measurement": "Kd", "setting": "[2]", "value": 230, "unit": "nM"},
      {"measurement": "Kd", "setting": "[3]", "value": "> 10000", "unit": "nM"},
      {"measurement": "Kd", "setting": "[4]", "value": 210, "unit": "nM"},
      {"measurement": "activity against kinase", "setting": "[5]", "value": "potent activity"},
      {"measurement": "cellular target engagement on PIKfyve", "setting": "[6]", "value": "confirmed"},
      {"measurement": "inhibitory effect on 3D spheroids", "setting": "[7]", "value": "more robust inhibitory effect at relatively lower concentrations than cabozantinib"},
      {"measurement": "tumor weights", "setting": "[8]", "value": "significant decreases in tumor weights"},
      {"measurement": "tumor growth", "setting": "[8]; oral gavage 5 days per week, SCID mice", "value": "Significant inhibition of tumor growth"},
      {"measurement": "lipidated Atg8", "setting": "[9]", "value": "increase in lipidated Atg8"},
      {"measurement": "autophagic flux", "setting": "[10]", "value": "inhibited"},
      {"measurement": "time to evidence of increase in LC3-II", "setting": "[11]; VCaP cells, 300 nM", "value": "within three hours"},
      {"measurement": "total level of LC3 lipidation", "setting": "[11]; numerous prostate cancer cell lines, 24 hours, dose-dependent", "value": "increase in the total level of LC3 lipidation"},
      {"measurement": "competition in affinity binding screen", "setting": "[12]", "value": "completely competed away"}
    ]}
  ]
}
